Results as given in patent EP2739618B1, “QUINAZOLINE COMPOUNDS AS SERINE/THREONINE KINASE INHIBITORS” (Array Biopharma, Inc., priority 2011, dated 2013).

Target: T1, human ERK-2 (Mitogen Activated Kinase 1) (Homo sapiens, UniProt P28482)
T1 construct: N-terminal 6-His fusion protein in E. coli and corresponding to aa 8-360; 6-His (N); made in house; host or cells: E. coli
Test: ERK-2 Enzymatic Assay
Assay type: biochemical
Conditions: 5nM ERK-2 enzyme, 25µM ATP, S/T17 peptide substrate, single assay or mean of multiple assays
Method: Compounds were tested in an enzymatic assay using human ERK-2 (Mitogen Activated Kinase 1), recombinantly expressed as an N-terminal 6-His fusion protein in E. coli and corresponding to aa 8-360. The substrate used was the fluorescent Omnia peptide S/T17 (Invitrogen of Carlsbad, CA; Cat. KNZ1171C). Test compounds were diluted in DMSO in 3-fold serial dilutions at 100x final concentrations. […] The assay was run at ambient temperature in a white 384-well polypropylene plate (Nunc, Inc of Naperville, IL; Cat. 267462) collecting data every 50 seconds for approximately 30 minutes on an Envision plate reader (PerkinElmer, Inc. of Waltham, MA); Excitation 340 nm/Emission 495 nm. The data collected from each well was fit to a straight line and the resulting rates were used to calculate percent of control. Percent of control was plotted against compound concentration and IC50 values were determined using a four-parameter fit. Representative data is in TABLE I and TABLE II. The reported IC50 may be from a single assay or the mean of multiple assays.

T1 sequence (P28482 8-360): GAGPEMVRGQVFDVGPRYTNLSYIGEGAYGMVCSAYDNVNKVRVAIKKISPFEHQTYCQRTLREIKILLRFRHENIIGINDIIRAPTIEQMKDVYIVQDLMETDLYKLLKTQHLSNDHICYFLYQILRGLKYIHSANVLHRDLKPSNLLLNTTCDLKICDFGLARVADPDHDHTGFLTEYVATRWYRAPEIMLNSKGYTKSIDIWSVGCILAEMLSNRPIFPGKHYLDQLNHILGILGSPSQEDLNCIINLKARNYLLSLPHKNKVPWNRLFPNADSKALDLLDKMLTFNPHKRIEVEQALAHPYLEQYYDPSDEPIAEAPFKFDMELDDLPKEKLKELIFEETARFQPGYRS

| Structure (SMILES) | IC50 (TABLE I) [nM] | IC50 (TABLE II) [nM] |
| --- | --- | --- |
| Cn1cc([C@@H](NC(=O)c2ccc3cnc(N[C@H]4CCO[C@H](CO)C4)nc3c2)c2ccc(Cl)c(F)c2)cn1 [Compound I-42, 2-((2S,4S)-2-hydroxymethyl-tetrahydro-pyran-4-ylamino)-quinazoline-7-carboxylic acid [(S)-(4-chloro-3-fluoro-phenyl)-(1-methyl-1H-pyrazol-4-yl)-methyl]-amide] | 7.2 | – |
| COc1ccc([C@H](NC(=O)c2ccc3cnc(NC4CCOCC4)nc3c2)c2cnn(C)c2)cc1Cl [Compound I-44, 2-(tetrahydro-pyran-4-ylamino)-quinazoline-7-carboxylic acid [(S)-(3-chloro-4-methoxy-phenyl)-(1-methyl-1H-pyrazol-4-yl)-methyl]-amide] | 1 | – |
| COc1ccc([C@H](NC(=O)c2ccc3cnc(N[C@H]4CCO[C@H](CO)C4)nc3c2)c2cnn(C)c2)cc1F [Compound I-46, N-((S)-(3-fluoro-4-methoxyphenyl)(1-methyl-1H-pyrazol-4-yl)methyl)-2-((2S,4S)-2-(hydroxymethyl)tetrahydro-2H-pyran-4-ylamino)quinazoline-7-carboxamide] | 4.2 | – |
| COc1ccc([C@@H](NC(=O)c2ccc3cnc(NC4CCOCC4)nc3c2)c2cnn(C)c2)cc1C#N [Compound I-49, (R)-N-((3-cyano-4-methoxyphenyl)(1-methyl-1H-pyrazol-4-yl)methyl)-2-(tetrahydro-2H-pyran-4-ylamino)quinazoline-7-carboxamide] | 141 | – |
| COc1ccc([C@H](NC(=O)c2cc(F)c3cnc(NC4CCOCC4)nc3c2)c2cnn(C)n2)cc1F [Compound I-51, (S)-5-Fluoro-N-((3-fluoro-4-methoxyphenyl)(2-methyl-2H-1,2,3-triazol-4-yl)methyl)-2-(tetrahydro-2H-pyran-4-ylamino)quinazoline-7-carboxamide] | 2.8 | – |
| COc1ccc([C@H](NC(=O)c2cc(F)c3cnc(N[C@H]4CCOC[C@H]4F)nc3c2)c2cnn(C)c2)cc1F [Compound I-52, 5-fluoro-N-((S)-(3-fluoro-4-methoxyphenyl)(1-methyl-1H-pyrazol-4-yl)methyl)-2-((3S,4S)-3-fluorotetrahydro-2H-pyran-4-ylamino)quinazoline-7-carboxamide] | 2.6 | – |
| COc1ccc(C(NC(=O)c2cc(F)c3cnc(NC4CCOCC4)nc3c2)c2cnn(C)n2)cc1F (centres unmarked) [Compound I-53, 5-Fluoro-2-(tetrahydro-pyran-4-ylamino)-quinazoline-7-carboxylic acid [(3-fluoro-4-methoxy-phenyl)-(2-methyl-2H-[1,2,3]triazol-4-yl)-methyl]-amide] | 6.8 | – |
| COc1ccc([C@@H](NC(=O)c2cc(F)c3cnc(NC4CCOCC4)nc3c2)c2cnn(C)n2)cc1F [Compound I-54, 5-Fluoro-2-(tetrahydro-pyran-4-ylamino)-quinazoline-7-carboxylic acid [(R)-(3-fluoro-4-methoxy-phenyl)-(2-methyl-2H-[1,2,3]triazol-4-yl)-methyl]-amide] | 31 | – |
| Cn1cc([C@@H](NC(=O)c2ccc3cnc(NC4CCOCC4)nc3c2)c2ccc(F)c(Cl)c2)cn1 [Compound I-55, 2-(Tetrahydro-pyran-4-ylamino)-quinazoline-7-carboxylic acid [(S)-(3-chloro-4-fluoro-phenyl)-(1-methyl-1H-pyrazol-4-yl)-methyl]-amide] | 2.7 | – |
| COc1ccc([C@H](NC(=O)c2ccc3cnc(NC4CCOCC4)nc3c2)c2cnn(C)c2)cc1C#N [Compound I-56, 2-(Tetrahydro-pyran-4-ylamino)-quinazoline-7-carboxylic acid [(3-cyano-4-methoxy-phenyl)-(1-methyl-1H-pyrazol-4-yl)-methyl]-amide] | 3.5 | – |
| COc1ccc([C@H](NC(=O)c2ccc3cnc(N[C@H]4CCO[C@H](COC(C)=O)C4)nc3c2)c2cnn(C)c2)cc1F [Compound I-57, Acetic acid (2S,4S)-4-(7-{[(S)-(3-fluoro-4-methoxy-phenyl)-(1-methyl-1H-pyrazol-4-yl)-methyl]-carbamoyl}-quinazolin-2-ylamino)-tetrahydro-pyran-2-ylmethyl ester] | 24 | – |
| COCCNc1ncc2c(F)cc(C(=O)N[C@@H](c3ccc(OC)c(F)c3)c3cnn(C)c3)cc2n1 [Compound I-58, 5-Fluoro-2-(2-methoxy-ethylamino)-quinazoline-7-carboxylic acid [(S)-(3-fluoro-4-methoxy-phenyl)-(1-methyl-1H-pyrazol-4-yl)-methyl]-amide] | 20 | – |
| COc1ccc([C@H](NC(=O)c2cc(F)c3cnc(NCCCF)nc3c2)c2cnn(C)c2)cc1F [Compound I-59, 5-Fluoro-2-(3-fluoro-propylamino)-quinazoline-7-carboxylic acid [(S)-(3-fluoro-4-methoxy-phenyl)-(1-methyl-1H-pyrazol-4-yl)-methyl]-amide] | 15 | – |
| COc1ccc([C@H](NC(=O)c2cc(F)c3cnc(NCC4COC4)nc3c2)c2cnn(C)c2)cc1F [Compound I-63, 5-Fluoro-2-[(oxetan-3-ylmethyl)-amino]-quinazoline-7-carboxylic acid [(S)-(3-fluoro-4-methoxy-phenyl)-(1-methyl-1H-pyrazol-4-yl)-methyl]-amide] | 4 | – |
| Cn1cc([C@@H](NC(=O)c2cc(F)c3cnc(NC4CCOCC4)nc3c2)c2ccc(C#N)c(Cl)c2)cn1 [Compound I-65, 5-Fluoro-2-(tetrahydro-pyran-4-ylamino)-quinazoline-7-carboxylic acid [(S)-(3-chloro-4-cyano-phenyl)-(1-methyl-1H-pyrazol-4-yl)-methyl]-amide] | 0.6 | – |
| COc1ccc([C@H](NC(=O)c2cc(F)c3cnc(NC4CCOCC4)nc3c2)c2cnn(C)c2)cc1Cl [Compound I-66, 5-Fluoro-2-(tetrahydro-pyran-4-ylamino)-quinazoline-7-carboxylic acid [(S)-(3-chloro-4-methoxy-phenyl)-(1-methyl-1H-pyrazol-4-yl)-methyl]-amide] | 0.6 | – |
| Cn1cc([C@@H](NC(=O)c2cc(F)c3cnc(NC4CCOCC4)nc3c2)c2cccc(F)c2)cn1 [Compound I-68] | 1.3 | – |
| COc1ccc([C@H](NC(=O)c2cc(F)c3cnc(N[C@@H]4CCOC[C@@H]4F)nc3c2)c2cnn(C)c2)cc1F [Compound I-70] | 4 | – |
| COc1ccc([C@H](NC(=O)c2ccc3cnc(NC4CS(=O)(=O)C4)nc3c2)c2cnn(C)c2)cc1F [II-3] | – | 52.8 |
| COc1ccc([C@@H](NC(=O)c2cc(F)c3cnc(NC4CCOCC4)nc3c2)c2cnn(C)c2)cc1F [II-4] | – | 15.7 |
| COc1ccc([C@H](NC(=O)c2ccc3cnc(N[C@H]4C[C@@H](O)C4)nc3c2)c2cnn(C)c2)cc1F [II-8] | – | 4.2 |

| Structure (SMILES) | IC50 (TABLE I) [nM] | IC50 (TABLE II) [nM] |
| --- | --- | --- |
| COc1ccc([C@H](NC(=O)c2ccc3cnc(N[C@H]4C[C@H](O)C4)nc3c2)c2cnn(C)c2)cc1F [II-9] | – | 3.8 |
| COc1ccc([C@H](NC(=O)c2ccc3cnc(NC4CC(OC)C4)nc3c2)c2cnn(C)c2)cc1F (some centres unmarked) [II-10] | – | 13.8 |
| COc1ccc([C@H](NC(=O)c2cc(F)c3cnc(NCCC#N)nc3c2)c2cnn(C)c2)cc1F [II-11] | – | 13.9 |
| Cn1cc([C@@H](NC(=O)c2cc(F)c3cnc(NC4CCOCC4)nc3c2)c2cccc(F)c2)cn1 [II-12] | – | 1.2 |
| COc1ccc([C@H](NC(=O)c2cc(F)c3cnc(NC4CCOCC4)nc3c2)c2cnn(C)c2)nc1 [II-14] | – | 153 |
| COc1ccc([C@H](NC(=O)c2cc(F)c3cnc(N[C@@H]4CCOC[C@@H]4F)nc3c2)c2cnn(C)c2)cc1F [II-15] | – | 4.3 |
| COc1ccc([C@H](NC(=O)c2ccc3cnc(Nc4ccnn4C)nc3c2)c2cnn(C)c2)cc1F [II-16] | – | 2.1 |
| COc1ccc([C@H](NC(=O)c2ccc3cnc(Nc4ccnc(C)c4)nc3c2)c2cnn(C)c2)cc1F [II-17] | – | 4.8 |
| COc1ccc([C@H](NC(=O)c2cc(F)c3cnc(Nc4cn(C)nc4C)nc3c2)c2cnn(C)c2)cc1F [II-19] | – | 6.8 |
| COc1ccc([C@H](NC(=O)c2cc(F)c3cnc(N[C@@H](C)CO)nc3c2)c2cnn(C)c2)cc1F [II-21] | – | 2.3 |
| COc1ccc([C@H](NC(=O)c2cc(F)c3cnc(NC4CCOCC4)nc3c2)c2cnn(C)c2)cc1 [II-22] | – | 7 |
| COc1ccc([C@H](NC(=O)c2cc(F)c3cnc(Nc4ccnn4C)nc3c2)c2cnn(C)c2)cc1F [II-23] | – | 10.8 |
| Cc1cc(Nc2ncc3ccc(C(=O)N[C@@H](c4ccc(Cl)c(F)c4)c4cnn(C)c4)cc3n2)n(C)n1 [II-24] | – | 14.6 |
| C[C@@H](CO)Nc1ncc2c(F)cc(C(=O)N[C@@H](c3cccc(F)c3)c3cnn(C)c3)cc2n1 [II-26] | – | 5.6 |
| COc1ccc([C@H](NC(=O)c2ccc3cnc(Nc4cn(C)nc4C)nc3c2)c2cnn(C)c2)cc1F [II-27] | – | 960 |
| COc1ccc([C@H](NC(=O)c2ccc3cnc(NC4CCOCC4)nc3c2)c2ccnn2C)cc1F [II-28] | – | 3 |
| COc1ccc([C@H](NC(=O)c2cc(F)c3cnc(NC4CCOCC4)nc3c2)c2ccnn2C)cc1F [II-29] | – | 2.2 |
| COc1ccc([C@H](NC(=O)c2ccc3cnc(N[C@H]4C[C@H]5C[C@@H]4CO5)nc3c2)c2cnn(C)c2)cc1F [II-30] | – | 1000 |
| COCC(C)Nc1ncc2ccc(C(=O)N[C@@H](c3ccc(OC)c(F)c3)c3cnn(C)c3)cc2n1 (some centres unmarked) [II-31] | – | 15 |
| COc1ccc([C@H](NC(=O)c2cc(F)c3cnc(N[C@H]4C[C@@H](F)C4)nc3c2)c2cnn(C)c2)cc1F [II-33] | – | 3.8 |
